According to ChEMBL document CHEMBL6074653, “Reversal of insulin resistance to combat type 2 diabetes mellitus by newer thiazolidinedione's in fructose induced insulin resistant rats” (Eur J Med Chem, 2024):

These compounds were tested against T1, Peroxisome proliferator-activated receptor gamma (Homo sapiens) (UniProt P37231) (assay: Agonist activity at Gal4-fused human PPARgamma transfected in African green monkey CV-1 cells assessed as receptor transactivation incubated for 24 hrs by luciferase based assay relative to control).
T1 sequence (whole entry): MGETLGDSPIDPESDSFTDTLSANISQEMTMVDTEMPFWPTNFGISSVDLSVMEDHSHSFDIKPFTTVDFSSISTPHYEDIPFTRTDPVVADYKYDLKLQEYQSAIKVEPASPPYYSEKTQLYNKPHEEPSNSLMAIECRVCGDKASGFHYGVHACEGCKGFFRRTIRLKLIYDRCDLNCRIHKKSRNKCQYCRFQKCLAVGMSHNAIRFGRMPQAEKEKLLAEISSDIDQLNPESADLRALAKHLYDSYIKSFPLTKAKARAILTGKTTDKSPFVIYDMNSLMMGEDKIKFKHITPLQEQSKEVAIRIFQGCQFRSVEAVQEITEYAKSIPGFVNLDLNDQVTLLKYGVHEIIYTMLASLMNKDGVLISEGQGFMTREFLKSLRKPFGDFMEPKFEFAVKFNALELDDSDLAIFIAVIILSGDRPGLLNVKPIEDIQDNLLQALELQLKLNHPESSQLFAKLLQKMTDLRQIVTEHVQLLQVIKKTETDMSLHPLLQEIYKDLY
Type: cell-based
Compound O=C1NC(=O)C(Cc2ccc(OCc3cccc(Br)c3)cc2)S1 (centres undefined) has an Activity of 21.2%.

The compounds below were run on L6 (assay: Induction of glucose uptake in rat L6 cells incubated for 24 hrs by GOD-POD technique).
Type: functional
Parameters: concentration or dose not given beside the values
COc1ccc(/C=C2\SC(=O)N(CC(=O)N3CCC[C@@H]3C#N)C2=O)cc1 gave an Activity of 58.66%. COc1ccc(/C=C2\SC(=O)N(CC(=O)N3CCC[C@@H]3C#N)C2=O)cc1OC was tested, and the Activity was 64.56%. In the case of Cc1ccc(/C=C2\SC(=O)N(CC(=O)N3CCC[C@@H]3C#N)C2=O)cc1, the Activity was 64.57%. With CN(C)c1ccc(/C=C2\SC(=O)N(CC(=O)N3CCC[C@@H]3C#N)C2=O)cc1 the Activity was 64.18%. With COc1cc(/C=C2\SC(=O)N(CC(=O)N3CCC[C@@H]3C#N)C2=O)cc(OC)c1OC the Activity was 69.74%. For N#C[C@H]1CCCN1C(=O)CN1C(=O)S/C(=C\c2ccco2)C1=O, the Activity was 57.4%. With N#C[C@H]1CCCN1C(=O)CN1C(=O)S/C(=C\c2ccccc2)C1=O the Activity was 63.23%. In the case of N#C[C@H]1CCCN1C(=O)CN1C(=O)S/C(=C\c2ccccc2O)C1=O, the Activity was 72.86%.
